Results taken from PubChem BioAssay AID1259407 (Chemical Carcinogenesis Research Information System (CCRIS), 2018).
Calls of active or inactive are those of the source. The rule behind the calls is not given here.

Tested on: CCRIS mutagenicity, Ames/micronucleus/aberration tests
Assay: CCRIS mutagenicity studies
[1] = Test System: AMES SALMONELLA TYPHIMURIUM, Strain/Indicator: TA98, Metabolic Activation: NONE, Method: STANDARD PLATE
[2] = Test System: AMES SALMONELLA TYPHIMURIUM, Strain/Indicator: TA98, Metabolic Activation: RAT, LIVER, S-9, AROCLOR 1254, Method: STANDARD PLATE
[3] = Test System: AMES SALMONELLA TYPHIMURIUM, Strain/Indicator: TA100, Metabolic Activation: NONE, Method: STANDARD PLATE
[4] = Test System: AMES SALMONELLA TYPHIMURIUM, Strain/Indicator: TA100, Metabolic Activation: RAT, LIVER, S-9, AROCLOR 1254, Method: STANDARD PLATE
[5] = Test System: AMES SALMONELLA TYPHIMURIUM, Strain/Indicator: TA1537, Metabolic Activation: NONE, Method: STANDARD PLATE
[6] = Test System: AMES SALMONELLA TYPHIMURIUM, Strain/Indicator: TA1537, Metabolic Activation: RAT, LIVER, S-9, AROCLOR 1254, Method: STANDARD PLATE
[7] = Test System: AMES SALMONELLA TYPHIMURIUM, Strain/Indicator: TA1538, Metabolic Activation: NONE, Method: STANDARD PLATE
[8] = Test System: AMES SALMONELLA TYPHIMURIUM, Strain/Indicator: TA1538, Metabolic Activation: RAT, LIVER, S-9, AROCLOR 1254, Method: STANDARD PLATE

Measured: mutagenic call

Nc1c(Br)cc([N+](=O)[O-])cc1[N+](=O)[O-]
active: Test System: AMES SALMONELLA TYPHIMURIUM, Strain/Indicator: TA98, Metabolic Activation: HAMSTER, LIVER, S-9, AROCLOR 1254 (10%), Method: PREINCUBATION active; positive | Test System: AMES SALMONELLA TYPHIMURIUM, Strain/Indicator: TA98, Metabolic Activation: HAMSTER, LIVER, S-9, AROCLOR 1254, Method: STANDARD PLATE active; positive | Test System: AMES SALMONELLA TYPHIMURIUM, Strain/Indicator: TA98, Metabolic Activation: NONE, Method: PREINCUBATION active; positive | [1] active; positive | Test System: AMES SALMONELLA TYPHIMURIUM, Strain/Indicator: TA98, Metabolic Activation: RAT, LIVER, S-9, AROCLOR 1254 (10%), Method: PREINCUBATION active; positive | [2] active; positive | Test System: AMES SALMONELLA TYPHIMURIUM, Strain/Indicator: TA98, Metabolic Activation: RAT, LIVER, S-9, KANECHLOR 500, Method: PREINCUBATION active; positive | Test System: AMES SALMONELLA TYPHIMURIUM, Strain/Indicator: TA100, Metabolic Activation: HAMSTER, LIVER, S-9, AROCLOR 1254 (10%), Method: PREINCUBATION active; positive | Test System: AMES SALMONELLA TYPHIMURIUM, Strain/Indicator: TA100, Metabolic Activation: HAMSTER, LIVER, S-9, AROCLOR 1254, Method: STANDARD PLATE active; positive | Test System: AMES SALMONELLA TYPHIMURIUM, Strain/Indicator: TA100, Metabolic Activation: NONE, Method: PREINCUBATION active; positive | [3] active; positive | Test System: AMES SALMONELLA TYPHIMURIUM, Strain/Indicator: TA100, Metabolic Activation: RAT, LIVER, S-9, AROCLOR 1254 (10%), Method: PREINCUBATION active; positive | [4] active; positive | Test System: AMES SALMONELLA TYPHIMURIUM, Strain/Indicator: TA100, Metabolic Activation: RAT, LIVER, S-9, KANECHLOR 500, Method: PREINCUBATION active; positive | Test System: AMES SALMONELLA TYPHIMURIUM, Strain/Indicator: TA1537, Metabolic Activation: HAMSTER, LIVER, S-9, AROCLOR 1254 (10%), Method: PREINCUBATION active; positive | Test System: AMES SALMONELLA TYPHIMURIUM, Strain/Indicator: TA1537, Metabolic Activation: HAMSTER, LIVER, S-9, AROCLOR 1254, Method: STANDARD PLATE active; positive | Test System: AMES SALMONELLA TYPHIMURIUM, Strain/Indicator: TA1537, Metabolic Activation: NONE, Method: PREINCUBATION active; positive | [5] active; positive | Test System: AMES SALMONELLA TYPHIMURIUM, Strain/Indicator: TA1537, Metabolic Activation: RAT, LIVER, S-9, AROCLOR 1254 (10%), Method: PREINCUBATION active; positive | [6] active; positive | Test System: AMES SALMONELLA TYPHIMURIUM, Strain/Indicator: TA1538, Metabolic Activation: HAMSTER, LIVER, S-9, AROCLOR 1254, Method: STANDARD PLATE active; positive | [7] active; positive | [8] active; positive | Test System: MOUSE LYMPHOMA, Strain/Indicator: L5178Y (TK+/TK-), Metabolic Activation: NONE, Method: SUSPENSION/PLATE active; positive. reevaluation of results: positive | Test System: MOUSE LYMPHOMA, Strain/Indicator: L5178Y (TK+/TK-), Metabolic Activation: RAT, LIVER, S-9, AROCLOR 1254, Method: SUSPENSION/PLATE active; positive. reevaluation of results: positive
inactive: Test System: AMES SALMONELLA TYPHIMURIUM, Strain/Indicator: TA1535, Metabolic Activation: HAMSTER, LIVER, S-9, AROCLOR 1254 (10%), Method: PREINCUBATION inactive; negative | Test System: AMES SALMONELLA TYPHIMURIUM, Strain/Indicator: TA1535, Metabolic Activation: NONE, Method: PREINCUBATION inactive; negative | Test System: AMES SALMONELLA TYPHIMURIUM, Strain/Indicator: TA1535, Metabolic Activation: RAT, LIVER, S-9, AROCLOR 1254 (10%), Method: PREINCUBATION inactive; negative

c1ccc2cc3cc4ccccc4cc3cc2c1
inactive: [1] inactive; negative | [3] inactive; negative | Test System: AMES SALMONELLA TYPHIMURIUM, Strain/Indicator: TA1535, Metabolic Activation: NONE, Method: STANDARD PLATE inactive; negative | Test System: AMES SALMONELLA TYPHIMURIUM, Strain/Indicator: TA1535, Metabolic Activation: RAT, LIVER, S-9, 3-METHYLCHOLANTHRENE, Method: STANDARD PLATE inactive; negative | Test System: AMES SALMONELLA TYPHIMURIUM, Strain/Indicator: TA1535, Metabolic Activation: RAT, LIVER, S-9, AROCLOR 1254, Method: STANDARD PLATE inactive; negative | [5] inactive; negative | [7] inactive; negative
active: Test System: AMES SALMONELLA TYPHIMURIUM, Strain/Indicator: TA98, Metabolic Activation: RAT, LIVER, S-9, 3-METHYLCHOLANTHRENE, Method: STANDARD PLATE active; positive | [2] active; positive | Test System: AMES SALMONELLA TYPHIMURIUM, Strain/Indicator: TA100, Metabolic Activation: MOUSE, LIVER, S-9, 2,3,7,8-TETRACHLORODIBENZO-P-DIOXIN, Method: STANDARD PLATE active; positive | Test System: AMES SALMONELLA TYPHIMURIUM, Strain/Indicator: TA100, Metabolic Activation: MOUSE, LIVER, S-9, 3-METHYLCHOLANTHRENE, Method: STANDARD PLATE active; positive | Test System: AMES SALMONELLA TYPHIMURIUM, Strain/Indicator: TA100, Metabolic Activation: RAT, LIVER, S-9, 3-METHYLCHOLANTHRENE, Method: STANDARD PLATE active; positive | [4] active; positive | Test System: AMES SALMONELLA TYPHIMURIUM, Strain/Indicator: TA1537, Metabolic Activation: RAT, LIVER, S-9, 3-METHYLCHOLANTHRENE, Method: STANDARD PLATE active; positive | [6] active; positive | Test System: AMES SALMONELLA TYPHIMURIUM, Strain/Indicator: TA1538, Metabolic Activation: RAT, LIVER, S-9, 3-METHYLCHOLANTHRENE, Method: STANDARD PLATE active; positive | [8] active; positive

CC(C)CCO
inactive: Test System: CHINESE HAMSTER V-79, Strain/Indicator: V-79 (HPRT)/6-THIOGUANINE, Metabolic Activation: NONE, Method: STANDARD PLATE inactive; negative | Test System: CHINESE HAMSTER V-79, Strain/Indicator: V-79 (HPRT)/6-THIOGUANINE, Metabolic Activation: RAT LIVER S-9, Method: STANDARD PLATE inactive; negative | Test System: CHINESE HAMSTER V-79 CELLS, Strain/Indicator: V-79 CELLS (HPRT)/6-THIOGUANINE, Metabolic Activation: NONE, Method: PREINCUBATION inactive; negative | Test System: CHINESE HAMSTER V-79 CELLS, Strain/Indicator: V-79 CELLS (HPRT)/6-THIOGUANINE, Metabolic Activation: S-9 (3%), Method: PREINCUBATION inactive; negative
